Experimental data published in US20080261977A1, “Pyrimidine Derivatives as Cannabinoid Receptor Modulators” (priority 2004, published 2008).
Structures can show the parent of a compound that is named as a salt. Where two headings read alike, the source gives them in different places.

Biological target: T1, human cannabinoid CB2 receptor (Homo sapiens, UniProt P34972)
T1 construct: expressed in transfected cells; host or cells: Saccharomyces cerevisiae strain MMY23 (cassette integrated at the ura3 locus; chimeric Gpa1/Gαi3)
Assay: Cannabinoid CB2 receptor agonist activity, yeast (Saccharomyces cerevisiae) cells expressing the receptor, FDGlu fluorescence
Type: cell-based
Settings: for Emax: read-out: efficacy (Emax relative to HU210) at the cloned human cannabinoid CB2 receptor
Method: The cannabinoid CB2 receptor agonist activity of the compounds of formula (I) was determined in accordance with the following experimental method.
Yeast (Saccharomyces cerevisiae) cells expressing the human cannabinoid CB2 receptor were generated by integration of an expression cassette into the ura3 chromosomal locus of yeast strain MMY23. This cassette consisted of DNA sequence encoding the human CB2 receptor flanked by the yeast GPD promoter to the 5′ end of CB2 and a yeast transcriptional terminator sequence to the 3′ end of CB2. MMY23 expresses a yeast/mammalian chimeric G-protein alpha subunit in which the C-terminal 5 amino acids of Gpa1 are replaced with the C-terminal 5 amino acids of human Gαi3 (as described in Brown et al. (2000), Yeast 16:11-22). Cells were grown at 30° C. in liquid Synthetic Complete (SC) yeast media (Guthrie and Fink (1991), Methods in Enzymology, Vol. 194) lacking uracil, tryptophan, adenine and leucine to late logarithmic phase (approximately 6 OD600/ml).
Agonists were prepared as 10 mM stocks in DMSO. EC50 values (the concentration required to produce 50% maximal response) were estimated using dilutions of between 3- and 5-fold (BiomekFX, Beckman) into DMSO. Agonist solutions in DMSO (1% final assay volume) were transferred into black, clear bottom, microtitre plates from NUNC (96- or 384-well). Cells were suspended at a density of 0.2 OD600/ml in SC media lacking histidine, uracil, tryptophan, adenine and leucine and supplemented with 10 mM 3-aminotriazole, 0.1M sodium phosphate pH 7.0, and […] fluorescein di-β-D-glucopyranoside (FDGlu). This mixture (50 ul per well for 384-well plates, 200 ul per well for 96-well plates) was added to agonist in the assay plates (Multidrop 384, Labsystems). After incubation at 30° C. for 24 hours, fluorescence resulting from degradation of FDGlu to fluorescein due to exoglucanase, an endogenous yeast enzyme produced during agonist-stimulated cell growth, was determined using a Spectrofluor microtitre plate reader (Tecan; excitation wavelength: 485 nm; emission wavelength: 535 nm). Fluorescence was plotted against compound concentration and iteratively curve fitted using a four parameter fit to generate a concentration effect value. Efficacy (Emax) was calculated from the equation
Emax=Max[compound X]−Min[compound X]/Max[HU210]−Min[HU210]×100%
where Max[compound X] and Min[compound X] are the fitted maximum and minimum respectively from the concentration effect curve for compound X, and Max[HU210] and Min[HU210] are the fitted maximum and minimum respectively from the concentration effect curve for (6aR,10aR)-3-1,1′-Dimethylheptyl)-6a,7,10,10a-tetrahydro-1-hydroxy-6,6-dimethyl-6H-dibenzo[b,d]pyran-9-methanol (HU210; available from Tocris). Equieffective molar ratio (EMR) values were calculated from the equation
Where EC50[compound X] is the EC50 of compound X and EC50[HU210] is the EC50 of HU210.

[1] = yeast agonist assay, read-out: EC50 at the cloned human cannabinoid CB2 receptor

T1 sequence (P34972 whole entry): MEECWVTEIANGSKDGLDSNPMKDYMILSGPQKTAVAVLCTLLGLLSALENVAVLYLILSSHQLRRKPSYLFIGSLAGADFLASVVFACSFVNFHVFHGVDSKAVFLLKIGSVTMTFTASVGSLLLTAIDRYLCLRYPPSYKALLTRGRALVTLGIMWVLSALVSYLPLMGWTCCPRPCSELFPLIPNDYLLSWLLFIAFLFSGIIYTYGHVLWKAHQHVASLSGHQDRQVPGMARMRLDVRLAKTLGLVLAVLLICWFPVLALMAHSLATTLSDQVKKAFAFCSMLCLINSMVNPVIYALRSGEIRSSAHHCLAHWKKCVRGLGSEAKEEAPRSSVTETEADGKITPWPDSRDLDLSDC

EC50 [1] [nM] | Emax (yeast agonist assay) [%] | Structure (SMILES) | EC50 [nM] | Emax [%]
< 300 | > 50 | CC(NCC1CC1)c1cnc(Nc2cccc(F)c2)nc1C(F)(F)F (stereo not drawn) [Example 94, (3-Fluorophenyl)-{5-[1-(cyclopropylmethyl-amino)-ethyl]-4-trifluoromethyl-pyrimidin-2-yl}-amine, formate] | – | –
– | – | FC(F)(F)c1nc(Nc2ccc(Cl)cc2Cl)ncc1CNC1CC1 [Example 30, (2,4-Dichlorophenyl)-(5-cyclopropylaminomethyl-4-trifluoromethyl-pyrimidin-2-yl)-amine] | < 300 | > 50
< 300 | > 50 | FC(F)(F)c1nc(Nc2cccc(Cl)c2)ncc1CNC1CC1 [Example 23, (3-Chlorophenyl)-(5-cyclopropylaminomethyl-4-trifluoromethyl-pyrimidin-2-yl)-amine,formate] | – | –
– | – | Fc1ccc(Nc2ncc(CNCC3CC3)c(C(F)(F)F)n2)cc1Cl [Example 13, (3-Chloro-4-fluoro-phenyl)-{5-[(cyclopropylmethyl-amino)-methyl]-4-trifluoromethyl-pyrimidin-2-yl}-amine hydrochloride] | < 300 | > 50
< 300 | > 50 | FC(F)(F)c1nc(Nc2cccc(Cl)c2)ncc1CNCC1CC1 [Example 25, (3-Chlorophenyl)-{5-[(cyclopropylmethylamino)-methyl]-4-trifluoromethyl-pyrimidin-2-yl}-amine,formate] | – | –
< 300 | > 50 | CC(C)(C)c1nc(Nc2cccc(Cl)c2)ncc1CNCC1CC1 [Example 103, (4-tert-Butyl-5-[(cyclopropylmethyl-amino)-methyl]-pyrimidin-2-yl}-(3-chloro-phenyl)-aminehydrocholoride] | – | –
– | – | CC(NC1CC1)c1cnc(Nc2cccc(F)c2)nc1C(F)(F)F (stereo not drawn) [Example 86, (3-Fluorophenyl)-[5-(1-cyclopropylamino-ethyl)-4-trifluoromethyl-pyrimidin-2-yl]-amine] | < 300 | > 50
< 300 | > 50 | Fc1cccc(Nc2ncc(CNCC3CCC3)c(C(F)(F)F)n2)c1 [Example 37, (3-Fluorophenyl)-{5-[(cyclobutylmethylamino)-methyl]-4-trifluoromethyl-pyrimidin-2-yl}-amine,formate] | – | –
– | – | CC(C)(C)CNCc1cnc(Nc2cccc(Cl)c2)nc1C(F)(F)F [Example 20, (3-Chlorophenyl)-{5-[(2,2-dimethylpropylamino)-methyl]-4-trifluoromethyl-pyrimidin-2-yl}-amine] | < 300 | > 50
< 300 | > 50 | CC(C)(C)c1nc(Nc2cccc(Cl)c2)ncc1CNCC1CCOCC1 [Example 99, (4-tert-Butyl-5-{[(tetrahydro-pyran-4-ylmethyl)-amino]-methyl}-pyrimidin-2-yl)-(3-chloro-phenyl)-aminehydrochloride] | – | –
– | – | FC(F)(F)c1nc(Nc2cccc(Cl)c2)ncc1CN1CCOCC1 [Example 14, (3-Chlorophenyl)-(5-morpholin-4-ylmethyl-4-trifluoromethyl-pyrimidin-2-yl)-amine] | < 300 | > 50
< 300 | > 50 | CC(C)(C)c1nc(Nc2cccc(Cl)c2)ncc1CNCc1ccc(F)cc1 [Example 100, (4-tert-Butyl-5-[(4-fluoro-benzylamino)-methyl]-pyrimidin-2-yl}-(3-chloro-phenyl)-amine hydrochloride] | – | –
– | – | FC(F)(F)c1nc(Nc2ccc(Cl)cc2Cl)ncc1CNCC1CC1 [Example 28, (2,4-Dichlorophenyl)-{5-[(cyclopropylmethylamino)-methyl]-4-trifluoromethyl-pyrimidin-2-yl}-amine] | < 300 | > 50
< 300 | > 50 | FC(F)(F)c1nc(Nc2cccc(Cl)c2)ncc1CNCC1CCC1 [Example 18, (3-Chlorophenyl)-{5-[(cyclobutylmethylamino)-methyl]-4-trifluoromethyl-pyrimidin-2-yl}-amine,formate] | – | –
– | – | FC(F)(F)c1nc(Nc2ccc(Cl)cc2Cl)ncc1CN1CCOCC1 [Example 35, (2,4-Dichlorophenyl)-(5-morpholin-4-ylmethyl-4-trifluoromethyl-pyrimidin-2-yl)-amine] | < 300 | > 50
< 300 | > 50 | FC(F)(F)c1nc(Nc2ccc(Cl)cc2Cl)ncc1CNCC1CCC1 [Example 29, (2,4-Dichlorophenyl)-{5-[(cyclobutylmethylamino)-methyl]-4-trifluoromethyl-pyrimidin-2-yl}-amine,formate] | – | –
< 300 | > 50 | CC(C)CNCc1cnc(Nc2cccc(Cl)c2)nc1C1CC1 [Example 5, (3-Chloro-phenyl)-[4-cyclopropyl-5-(isobutylamino-methyl)-pyrimidin-2-yl]-amine] | – | –
< 300 | > 50 | COCCNCc1cnc(Nc2cccc(Cl)c2)nc1C(F)(F)F [Example 17, (3-Chlorophenyl)-{5-[(2-methoxy-ethylamino)-methyl]-4-trifluoromethyl-pyrimidin-2-yl}-amine, formate] | – | –
< 300 | > 50 | CCCNCc1cnc(Nc2cccc(Cl)c2)nc1C(F)(F)F [Example 19, (3-Chlorophenyl)-(5-propylaminomethyl-4-trifluoromethyl-pyrimidin-2-yl)-amine,formate] | – | –
< 300 | > 50 | CC(C)CNC(C)c1cnc(Nc2cccc(Cl)c2)nc1C(F)(F)F (stereo not drawn) [Example 92, (3-Chlorophenyl)-[5-(1-isobutylamino-ethyl)-4-trifluoromethyl-pyrimidin-2-yl]-amine, formate] | – | –

Structure (SMILES) | EC50 [1] [nM] | Emax (yeast agonist assay) [%] | EC50 [nM] | Emax [%]
CC(O)CNCc1cnc(Nc2cccc(Cl)c2)nc1C(F)(F)F (stereo not drawn) [Example 52, 1-{[2-(3-Chlorophenylamino)-4-trifluoromethyl-pyrimidin-5-ylmethyl]-amino}-propan-2-ol] | 300 to 1000 | – | – | > 50
Fc1cccc(Nc2ncc(CNCC3CC3)c(C(F)(F)F)n2)c1 [Example 54, (3-Fluorophenyl)-{5-[(cyclopropylmethylamino)-methyl]-4-trifluoromethyl-pyrimidin-2-yl}-amine,formate] | 300 to 1000 | – | – | > 50
CN(C)Cc1cnc(Nc2cccc(Cl)c2)nc1C(F)(F)F [Example 44, (3-Chlorophenyl)-(5-dimethylaminomethyl-4-trifluoromethyl-pyrimidin-2-yl)-amine, formate] | 300 to 1000 | – | – | > 50
COCCNCc1cnc(Nc2cccc(Cl)c2)nc1C(C)(C)C [Example 101, (4-tert-Butyl-5-[(2-methoxy-ethylamino)-methyl]-pyrimidin-2-yl}-(3-chloro-phenyl)-aminehydrochloride] | < 300 | – | – | > 50
CN(Cc1cnc(Nc2cccc(Cl)c2)nc1C(F)(F)F)CC1CCC1 [Example 51] | 300 to 1000 | – | – | > 50
Fc1cccc(Nc2ncc(CN3CCOCC3)c(C(F)(F)F)n2)c1 [Example 56, (3-Fluorophenyl)-(5-morpholin-4-ylmethyl-4-trifluoromethyl-pyrimidin-2-yl)-amine] | 300 to 1000 | – | – | > 50
CC(C)CCNCc1cnc(Nc2cccc(F)c2)nc1C(F)(F)F [Example 55, (3-Fluorophenyl)-{5-[(3-methylbutylamino)-methyl]-4-trifluoromethyl-pyrimidin-2-yl}-amine] | 300 to 1000 | – | – | > 50
